Broadly, the IC50 is the concentration needed to halve the response being measured.

The subject of one experiment is PARP1+/+A16 fibroblasts. Description: Proliferation by BrdU incorporation. The format is cell-based. The settings on record: wildtype fibroblasts; single agent. How it is done: (§1) Proliferation of various tumor cell lines including uterine cancer Hela cells, lung carcinoma A549 cells, PARP1+/+A16 and PARP1−/− A12 fibroblasts, and several human pancreatic tumor cell lines, COLO357FG, MiaPaCa-2, AsPC-1, L3.6pl, and Panc28, is measured by BrdU incorporation. In some experiments, tumor cell proliferation is measured after 96 hours. The concentration of IIIg is titrated to show the effect of IIIg on tumor cell growth in vitro.
(§2) BrdU assay is well known in the art. Briefly, cells are cultured in the presence of the respective test substances in an appropriate 96-well MP at 37° C. for a certain period of time (1 to 5 days, depending on the individual assay system). Subsequently, BrdU is added to the cells and the cells are reincubated (usually 2-24 h). During this labeling period, the pyrimidine analogue BrdU is incorporated in place of thymidine into the DNA of proliferating cells. After removing the culture medium the cells are fixed and the DNA is denatured in one step by adding FixDenat (the denaturation of the DNA is necessary to improve the accessibility of the incorporated BrdU for detection by the antibody). The anti-BrdU-POD antibody is added and the antibody binds to the BrdU incorporated in newly synthesized, cellular DNA. The immune complexes are detected by the subsequent substrate reaction via chemiluminescent detection (based on Cell Proliferation ELISA, BrdU Chemiluminescence Protocol from Roche).
(§3) Experiments and analyses are performed according to Shaw G and Prowse DM, “Inhibition of androgen-independent prostate cancer cell growth is enhanced by combination therapy targeting Hedgehog and ErbB signaling” Cancer Cell Int. 2008 Mar. 18; 8:3.

Another experiment concerns PARP1−/− A12 fibroblasts. Description: Proliferation by BrdU incorporation. The format is cell-based. The settings on record: PARP-1−/− fibroblasts; single agent. The procedure:
as §1, §2, §3
On the technique in general: Incorporation of labelled thymidine or its analogues reports DNA synthesis.

The test system of experiment [1] is human pancreatic tumor cell lines, COLO357FG, MiaPaCa-2, AsPC-1, L3.6pl, and Panc28. Description: Proliferation by BrdU incorporation. It is filed as cell-based. To be noted: single agent. The procedure:
as §1, §2, §3

The next experiment deals with MDA-MB-231. Description: BrdU chemiluminescent cell proliferation assay. The format is cell-based, human. To be noted: for IC50: Homo sapiens, MDA-MB-231, 72 h, 72 hour treatment. The procedure:
(§4) Test Agents—Cells are treated 24 hours after plating (Day 1) with vehicle or test agents at concentrations of 0.1 μM, 0.3 μM, 1 μM, 3 μM, 10 μM, 30 μM and 100 μM.
(§5) Tumor Cell Lines—Tumor cell lines (Table 1) are obtained from the American Type Cell Collection (ATCC, Rockville, Md.) or NCI-DCTD Tumor Repository (Bethesda, Md.) and maintained in proper growth media supplemented with 10% fetal bovine serum (FBS, NovaTech), and are maintained in specified growth media. Cells are propagated at 37° C. in a humidified atmosphere containing 5% carbon dioxide.
(§6) Cell proliferation assay—Cell proliferation is determined using BrdU chemiluminescent assay, which measures incorporation of 5-bromo-2′-deoxyuridine (BrdU) into the genomic DNA of proliferating cells. Briefly, cells are added with BrdU for 4 hours, during which time it incorporates into the DNA of dividing cells in place of thymidine. Following labeling, cells are fixed and DNA denatured in one step by adding a FixDenat® denaturizing solution. After removing FixDenat, an anti-BrdU-peroxidase conjugated antibody is added, which binds to BrdU incorporated into newly-synthesized cellular DNA. Following antibody incubation, cells are washed 3 times with PBS and subjected to luminescent analysis. The reaction product is quantified by measuring light emission using a scanning multi-well luminometer (luminescence ELISA reader.)
(§7) Experimental Design—Tumor cells (Table 1) are grown to 70% confluency, trypsinized, counted and seeded in 96 well flat-bottom plates at final concentrations of 7.5×103-3×10^4 cells/well (Day 0); treatment with IIIg begins on Day 1 and continues for 68 hours (Table 2). Doses for both compounds range between […] and 100 μM. At the 68 hour time point, viable cell number is measured by BrdU assay as described above. Experiments are repeated at least twice at the same doses to determine inhibition of cell proliferation. Results from these studies are used to calculate an IC50 value (drug concentration that results in half-maximal response) for IIIg in each line.
(§8) For single studies, data from each experiment is collected and expressed as % Inhibition of Cell Proliferation (% ICP) using the following calculation.
(§9) % ICP=100%×[(1−(RLUtest/RLUvehicle)]
(§10) Where RLUtest is the relative light unit of the tested sample, and RLUvehicle is the relative light unit of the vehicle in which the drug is dissolved. An IC50 value is calculated from % ICP (PRISM® GraphPad software) using the formula:
(§11) y=min+(max−min)/(1+10^(Log(IC50)−x)×Hillslope)
(§12) Where (x) is the logarithm of agonist concentration, (y) is the response, and (min) and (max) are the variable lower and upper plateaus, respectively. The variable Hillslope characterizes the slope of the curve at its midpoint. The IC50 is the drug concentration for y halfway between min and max.

Another experiment relates to PC-3. Description: BrdU chemiluminescent cell proliferation assay. The settings on record: for IC50: Homo sapiens, PC-3, 72 h, 72 hour treatment. It is filed as cell-based, human. The procedure:
as §4, §5, §6, §7, §8, §9, §10, §11, §12

For a further experiment, the system named is MX-1. The experiment in a line: BrdU chemiluminescent cell proliferation assay. The format is cell-based, human. To be noted: for IC50: Homo sapiens, MX1, 72 hour treatment. How it is done:
as §4, §5, §6, §7, §8, §9, §10, §11, §12

Another experiment concerns NIH: OVCAR-3. The experiment in a line: BrdU chemiluminescent cell proliferation assay. The format is cell-based, human. To be noted: for IC50: Homo sapiens, OVCAR-3, 72 h, 72 hour treatment. How it is done:
as §4, §5, §6, §7, §8, §9, §10, §11, §12

[2] abbreviates: mean of Exp1 and Exp2, read-out: Mean IC50.

Where two headings read alike, the source gives them in different places.

With `O=c1ccc2c(I)c([N+](=O)[O-])ccc2o1` [IIIg, 5-iodo-6-nitro-benzopyrone], the figures for the Cell growth entry (with PARP1+/+A16 fibroblasts; in the experiment with PARP1−/− A12 fibroblasts; in experiment [1]) were “selectively inhibits the growth of wildtype”, “not PARP-1−/− fibroblasts” and “significantly inhibits cell growth”, respectively. Besides, the IC50 with MDA-MB-231 (Exp1, read-out: IC50) was 24 µM; in the experiment with MDA-MB-231 (Exp2, read-out: IC50) it was 24.3 µM; with MDA-MB-231 (setting [2]) it was 24.2 µM; in the experiment on PC-3 (Exp1, read-out: IC50), 22 µM; in the experiment with PC-3 (Exp2, read-out: IC50), 25.3 µM; with PC-3 (setting [2]), 23.7 µM. Also, the IC50 in the experiment on MX-1 (Exp2, read-out: IC50) is 27 µM; in the experiment on MX-1 (setting [2]), 27 µM; with NIH: OVCAR-3 (Exp1, read-out: IC50) it was 30.4 µM; in the experiment with NIH: OVCAR-3 (Exp2, read-out: IC50), 29.6 µM; in the experiment on NIH: OVCAR-3 (setting [2]) it was 30 µM. Besides, the “Mean Maximum % Response” value is given as 99% in the experiment with MDA-MB-231 (Max Concentration 100 μM), 100% with PC-3 (Max Concentration 100 μM), 99% with MX-1 (Max Concentration 100 μM) and 98% in the experiment on NIH: OVCAR-3 (Max Concentration 100 μM).

For the origin of these results see patent US20090149417A1, “Methods and compositions for the treatment of cancer using benzopyrone-type PARP inhibitors” (priority 2007, published 2009).
